Reference: paper PMC9071458, “The tRNA discriminator base defines the mutual orthogonality of two distinct pyrrolysyl-tRNA synthetase/tRNA^Pyl pairs in the same organism” (Nucleic Acids Research, 2022)

How the values were obtained:
Test in all cases: UAG suppression of SAMP1 reporter in H. volcanii, immunoblot and LC-MS/MS of the product
Format in all cases: cell-based
[1] = molecular target: T1, HMET1 PylRS1 (Candidatus Methanohalarchaeum thermophilum, UniProt A0A1Q6DXK2, N163S/V165I); details: 1 mM 3-I-Phe in medium, tRNAPyl1, 42 °C; printed as PylRS1-SI
T1 construct: gene BTN85_1602; deltaPylSn type (catalytic domain only), N-terminal 6xHis tag, expressed in Haloferax volcanii

[2] = molecular target: T2, HMET1 PylRS2 (Candidatus Methanohalarchaeum thermophilum, UniProt A0A1Q6DTA0); details: 1 mM BocK in medium, cognate tRNAPyl2, 42 °C
T2 construct: gene BTN85_0018; deltaPylSn type (catalytic domain only), N-terminal 6xHis tag, expressed in Haloferax volcanii
T2 sequence (A0A1Q6DTA0 1-273): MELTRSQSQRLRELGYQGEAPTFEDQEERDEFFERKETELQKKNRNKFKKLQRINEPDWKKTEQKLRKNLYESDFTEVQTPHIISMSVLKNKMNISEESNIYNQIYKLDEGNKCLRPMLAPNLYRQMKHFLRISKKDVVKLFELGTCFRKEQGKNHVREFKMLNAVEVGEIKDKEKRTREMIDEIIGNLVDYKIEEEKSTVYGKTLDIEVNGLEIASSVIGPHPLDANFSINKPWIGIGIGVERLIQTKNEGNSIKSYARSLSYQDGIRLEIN

[3] = molecular target: T3, HMET1 PylRS1 (Candidatus Methanohalarchaeum thermophilum, UniProt A0A1Q6DXK2); details: 1 mM BocK in medium, cognate tRNAPyl1, 42 °C
T3 construct: gene BTN85_1602; deltaPylSn type (catalytic domain only), N-terminal 6xHis tag, expressed in Haloferax volcanii
T3 sequence (A0A1Q6DXK2 1-273): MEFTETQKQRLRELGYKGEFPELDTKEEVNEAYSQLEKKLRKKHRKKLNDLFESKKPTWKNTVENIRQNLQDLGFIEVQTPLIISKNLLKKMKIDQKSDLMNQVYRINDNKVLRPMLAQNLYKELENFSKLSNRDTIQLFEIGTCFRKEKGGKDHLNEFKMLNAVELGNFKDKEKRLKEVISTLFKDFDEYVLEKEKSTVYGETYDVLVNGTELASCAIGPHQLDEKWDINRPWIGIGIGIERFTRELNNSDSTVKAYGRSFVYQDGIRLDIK

T1 sequence (A0A1Q6DXK2 entry or part of it N163S/V165I): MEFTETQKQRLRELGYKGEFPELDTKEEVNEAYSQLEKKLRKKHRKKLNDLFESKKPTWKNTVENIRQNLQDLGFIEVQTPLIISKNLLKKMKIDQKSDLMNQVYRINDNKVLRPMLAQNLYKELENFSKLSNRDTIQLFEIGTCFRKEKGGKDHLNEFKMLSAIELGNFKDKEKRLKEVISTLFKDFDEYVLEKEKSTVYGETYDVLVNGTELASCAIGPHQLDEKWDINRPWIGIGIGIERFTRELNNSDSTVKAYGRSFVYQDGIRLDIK

Compound	UAG suppression of SAMP1 reporter in H. volcanii, immunoblot and LC-MS/MS of the [1]	UAG suppression of SAMP1 reporter in H. volcanii, immunoblot and LC-MS/MS of the [2]	UAG suppression of SAMP1 reporter in H. volcanii, immunoblot and LC-MS/MS of the [3]
N[C@@H](Cc1cccc(I)c1)C(=O)O [3-I-Phe]	The PylRS1-SI/tRNA^Pyl1 pair exhibited strong amber suppression in a 3-I-Phe-dependent manner		
CC(C)(C)OC(=O)NCCCC[C@H](N)C(=O)O [BocK]		native HMET1 PylRS/tRNA^Pyl pairs incorporate BocK into proteins via genetic code expansion in H. volcanii	both HMET1 PylRS/tRNA^Pyl pairs facilitated efficient amber suppression
